From patent US8993527B2, “Methods, compositions, and formulations for preventing or reducing adverse effects in a patient” (Pericor Therapeutics, Inc., priority 2005, dated 2015)

How the values were obtained:
[1] = tested on: ischemic myocardium; test: Inosine levels in venous blood of dogs during coronary artery occlusion; format: in vivo, dog; settings: over the 60-minute assay period, vs saline
Text: Thirteen mongrel dogs were anesthetized with phenobarbital. […] C.V. Dis. 20; 55 (1977). […] Two of the surviving saline-treated animals fibrillated. […] That the increase in the levels of adenosine is due, at least in part, to a reduction in the amount of ATP that is converted to inosine was shown by analysis of venous blood from dogs in Example III for inosine levels.

[2] = tested on: ischemic myocardium; format: in vivo, dog; settings: vs saline-treated animals, 5 and 60 minutes of ischemia
Text: Thirteen mongrel dogs were anesthetized with phenobarbital. […] C.V. Dis. 20; 55 (1977).

[3] = Phase 2 CABG trial: safety (serum glucose, uric acid, adverse events); format: in vivo, human
Description: In addition to the hemodynamic monitoring described above the following tests were performed at screening, on the first post-operative day and at discharge:
1. Hematology included hemoglobin, total white cell count and differential, hematocrit and platelet count.
4. Any adverse events were recorded throughout by the investigator, who assessed their severity and the relationship of these adverse experiences to the treatment.
11. Adverse Effects. The incidence, severity and drug-relatedness of any adverse effects were tabulated by treatment group by decreasing incidence of such effects in the high dose group. Statistical analysis was not performed.

[4] = tested on: ischemic rat hearts; test: Rat heart ischemia model: tissue adenosine levels; format: in vivo; settings: intraperitoneal; hearts excised after 60 minutes, incubated 60 minutes at 37° C.
Description: Male rats were injected intraperitonealy with either the AICA riboside analog, AICA riboside or saline, as a control. After 60 minutes, the hearts were excised and incubated at 37° C. for a further 60 minutes. Tissue extracts were prepared and analyzed for adenosine by high performance liquid chromatography (HPLC).

NC(=O)c1ncn([C@@H]2O[C@H](CO)[C@@H](O)[C@H]2O)c1N [1 (1-110), 5-amino-1-β-D-ribofuranosyl-imidazole-4-carboxamide]
inosine levels [1]: more than twofold decrease
regional myocardial blood flow to the ischemic myocardium [2]: significantly greater
SERUM GLUCOSE, MEAN BASELINE ([3]; 0.05 mg/kg/min (n = 41)): 108.5 ± 4.8 mg/dL
SERUM URIC ACID, MEAN BASELINE ([3]; 0.05 mg/kg/min (n = 41)): 5.9 ± 0.2 mg/dL
SERUM GLUCOSE-MEAN CHANGES FROM BASELINE ([3]; 0.05 mg/kg/min, 24 HR POST): 44.2 ± 7.4 mg/dL
SERUM URIC ACID-MEAN CHANGES FROM BASELINE ([3]; 0.05 mg/kg/min, 24 HR POST): -0.5 ± 0.2 mg/dL
SERUM GLUCOSE-MEAN CHANGES FROM BASELINE ([3]; 0.05 mg/kg/min, DISCHARGE): 18.7 ± 6.3 mg/dL
SERUM URIC ACID-MEAN CHANGES FROM BASELINE ([3]; 0.05 mg/kg/min, DISCHARGE): 0.3 ± 0.2 mg/dL
SERUM GLUCOSE-MEAN CHANGES FROM BASELINE ([3]; 0.05 mg/kg/min, ICU + 0): 65.6 + 7.6 mg/dl
SERUM URIC ACID-MEAN CHANGES FROM BASELINE ([3]; 0.05 mg/kg/min, ICU + 0): -0.3 ± 0.1 mg/dL
SERUM GLUCOSE-MEAN CHANGES FROM BASELINE ([3]; 0.05 mg/kg/min, ICU + 4 HR): 53.6 + 11.9 mg/dl
SERUM URIC ACID-MEAN CHANGES FROM BASELINE ([3]; 0.05 mg/kg/min, ICU + 4 HR): -0.1 ± 0.1 mg/dL
SERUM GLUCOSE-MEAN CHANGES FROM BASELINE ([3]; 0.05 mg/kg/min, ICU + 8 HR): 58.8 + 12.1 mg/dl
SERUM URIC ACID-MEAN CHANGES FROM BASELINE ([3]; 0.05 mg/kg/min, ICU + 8 HR): -0.0 ± 0.1 mg/dL
SERUM GLUCOSE-MEAN CHANGES FROM BASELINE ([3]; 0.05 mg/kg/min, POST CPB): 116.5 ± 10.7 mg/dL
SERUM URIC ACID-MEAN CHANGES FROM BASELINE ([3]; 0.05 mg/kg/min, POST CPB): -0.6 ± 0.1 mg/dL
SERUM GLUCOSE-MEAN CHANGES FROM BASELINE ([3]; 0.05 mg/kg/min, PRE CPB): 18.6 ± 7.0 mg/dL
SERUM URIC ACID-MEAN CHANGES FROM BASELINE ([3]; 0.05 mg/kg/min, PRE CPB): -0.1 ± 0.1 mg/dL
SERUM GLUCOSE, MEAN BASELINE ([3]; 0.10 mg/kg/min (n = 35)): 120.6 ± 7.3 mg/dL
SERUM URIC ACID, MEAN BASELINE ([3]; 0.10 mg/kg/min (n = 35)): 5.7 ± 0.2 mg/dL
SERUM URIC ACID-MEAN CHANGES FROM BASELINE ([3]; 0.10 mg/kg/min, 24 HR POST): 0.3 ± 0.3 mg/dL
SERUM GLUCOSE-MEAN CHANGES FROM BASELINE ([3]; 0.10 mg/kg/min, DISCHARGE): 19.2 ± 7.0 mg/dL
SERUM URIC ACID-MEAN CHANGES FROM BASELINE ([3]; 0.10 mg/kg/min, DISCHARGE): -0.1 ± 0.2 mg/dL
SERUM GLUCOSE-MEAN CHANGES FROM BASELINE ([3]; 0.10 mg/kg/min, ICU + 0): 59.8 + 13.6 mg/dl
SERUM URIC ACID-MEAN CHANGES FROM BASELINE ([3]; 0.10 mg/kg/min, ICU + 0): 1.5 ± 0.2 mg/dL
SERUM GLUCOSE-MEAN CHANGES FROM BASELINE ([3]; 0.10 mg/kg/min, ICU + 4 HR): 55.5 + 9.6 mg/dl
SERUM URIC ACID-MEAN CHANGES FROM BASELINE ([3]; 0.10 mg/kg/min, ICU + 4 HR): 1.6 ± 0.2 mg/dL
SERUM GLUCOSE-MEAN CHANGES FROM BASELINE ([3]; 0.10 mg/kg/min, ICU + 8 HR): 44.4 + 7.5 mg/dl
SERUM URIC ACID-MEAN CHANGES FROM BASELINE ([3]; 0.10 mg/kg/min, ICU + 8 HR): 1.4 ± 0.2 mg/dL
SERUM GLUCOSE-MEAN CHANGES FROM BASELINE ([3]; 0.10 mg/kg/min, POST CPB): 120.6 ± 15.9 mg/dL
SERUM URIC ACID-MEAN CHANGES FROM BASELINE ([3]; 0.10 mg/kg/min, POST CPB): 0.4 ± 0.1 mg/dL
SERUM GLUCOSE-MEAN CHANGES FROM BASELINE ([3]; 0.10 mg/kg/min, PRE CPB): 4.8 ± 3.4 mg/dL
SERUM URIC ACID-MEAN CHANGES FROM BASELINE ([3]; 0.10 mg/kg/min, PRE CPB): 0.4 ± 0.1 mg/dL
uric acid effects in the initial high dose patients ([3]; 0.19 or 0.38 mg/kg/min, five drug-treated patients): significant hyperuricemia and elevated urinary uric acid levels with crystalluria
drug-treated patients with adverse events ([3]; low dose group (0.05 mg/kg/min)): 28/41
Tissue Adenosine Levels (% Increase vs. Saline) [4]: 30%
